Assay results as given in patent US7417048B2, “Aryl-substituted derivatives of cycloalkyl and branched chain alkyl carboxylic acids useful as antinociceptive drugs for peripheral targets” (priority 2003, dated 2008).

Tests used:
mouse TRP-M8 receptor = molecular target: T1, mouse TRP-M8 receptor (Mus musculus, UniProt Q8R4D5); assay: Voltage patch-clamp of HEK cells transiently transfected with mouse TRP-M8; assay type: cell-based; settings: for activity relative to icilin (integrated inward current, icilin as 100): 1 μM, applied 10 sec, at least 4 cells
T1 construct: expressed in transfected cells; host or cells: human embryonic kidney cells (transient transfection)
Procedure: (§1) Human embryonic kidney cells were transiently transfected with the gene for the mouse TRP-M8 receptor. These cells were then voltage patch-clamped in a standard microscopic apparatus and the test solution electronically applied for 10 sec. The integrated areas of the inward current, measured in picoAmperes were then recorded. Icilin a standard cooling antinociceptive agent was used the positive control. Test substances were applied at 1 μM to at least 4 cells and the current recorded.

human TRP-M8 receptor = molecular target: T2, human TRP-M8 receptor (Homo sapiens, UniProt Q7Z2W7); assay: Fura-2 calcium fluorescence in HEK cells permanently transfected with human TRP-M8; assay type: cell-based
T2 construct: expressed in transfected cells; host or cells: human embryonic kidney cells (permanent transfection)
Procedure: (§2) Human embryonic kidney cells were permanently transfected with the gene for the human TRP-M8 receptor. These cells were then incubated with a calcium fluorescence indicator (Fura-2) and incubated at either 29 or 37° C. These cells were then distributed into a 96-well fluorescence-plate image reader with automated drug dilution and computerized software for dose-response analysis. The influx of calcium upon drug stimulated was quantified in fluorescence units.

TRP-A1 = TRP-A1 (Homo sapiens, UniProt O75762); assay: TRP-A1 activation; assay type: cell-based
TRP-M8 coolness receptor = TRP-M8 coolness receptor (Homo sapiens, UniProt Q7Z2W7); assay: TRP-M8 coolness receptor activation (summary statement); assay type: cell-based
Procedure: as §1
as §2, with “units. […] The EC50 of CPS-125 in this test system was 6 μM and for the sulfodimethoxinyl- derivative, it was 60 μM.” for “units.”

[1] = test system: lips and nasal mucous membranes; assay: Cooling effect of suspension applied to lips and nasal mucous membranes; assay type: in vivo, human; settings: for cooling effect on the lips and on breathing sensation: 20 mg/ml suspension in saline-10% Tween 80, lips and nasal mucous membranes
Source text: Sulfadiazine is used as antibiotic for urinary tract infections and its silver salt is also used a topical antibiotic for the treatment of burn wounds. One peripheral antinociceptive compound of this discovery is derived from sulfadiazine as the -ZR″ group, and has the structure illustrated by Formula 3. […] The embodiment, coded as CPS-125, also activated the TRP-M8 coolness receptor, but not TRP-A1. […] Sulfonamides are used as topical and systemic antibiotics. Generally, these drugs are used at doses of 500 mg to gram quantities, and have relatively low toxic side effects except for the risks of renal crystalluria and drug hypersensitivity reactions. […] (St. Louis, Mo.) and coupled to p-menthoyl chloride, using the chemical synthesis described above. Each compound was then tested at 20 mg/ml on the lips and nasal mucous membranes. The compounds were added to sterile saline-10% Tween 80 mixture and stirred using a glass rod until the mixture was a homogeneous suspension. Using a clean glass rod, the suspension was first applied to the lips and nasal vestibule. After this trial, a dropper was used to apply the suspension into the nostrils, at a volume of 0.06 ml in 2 droplets per nostril.

[2] = cited from earlier work

T1 sequence (Q8R4D5 whole entry): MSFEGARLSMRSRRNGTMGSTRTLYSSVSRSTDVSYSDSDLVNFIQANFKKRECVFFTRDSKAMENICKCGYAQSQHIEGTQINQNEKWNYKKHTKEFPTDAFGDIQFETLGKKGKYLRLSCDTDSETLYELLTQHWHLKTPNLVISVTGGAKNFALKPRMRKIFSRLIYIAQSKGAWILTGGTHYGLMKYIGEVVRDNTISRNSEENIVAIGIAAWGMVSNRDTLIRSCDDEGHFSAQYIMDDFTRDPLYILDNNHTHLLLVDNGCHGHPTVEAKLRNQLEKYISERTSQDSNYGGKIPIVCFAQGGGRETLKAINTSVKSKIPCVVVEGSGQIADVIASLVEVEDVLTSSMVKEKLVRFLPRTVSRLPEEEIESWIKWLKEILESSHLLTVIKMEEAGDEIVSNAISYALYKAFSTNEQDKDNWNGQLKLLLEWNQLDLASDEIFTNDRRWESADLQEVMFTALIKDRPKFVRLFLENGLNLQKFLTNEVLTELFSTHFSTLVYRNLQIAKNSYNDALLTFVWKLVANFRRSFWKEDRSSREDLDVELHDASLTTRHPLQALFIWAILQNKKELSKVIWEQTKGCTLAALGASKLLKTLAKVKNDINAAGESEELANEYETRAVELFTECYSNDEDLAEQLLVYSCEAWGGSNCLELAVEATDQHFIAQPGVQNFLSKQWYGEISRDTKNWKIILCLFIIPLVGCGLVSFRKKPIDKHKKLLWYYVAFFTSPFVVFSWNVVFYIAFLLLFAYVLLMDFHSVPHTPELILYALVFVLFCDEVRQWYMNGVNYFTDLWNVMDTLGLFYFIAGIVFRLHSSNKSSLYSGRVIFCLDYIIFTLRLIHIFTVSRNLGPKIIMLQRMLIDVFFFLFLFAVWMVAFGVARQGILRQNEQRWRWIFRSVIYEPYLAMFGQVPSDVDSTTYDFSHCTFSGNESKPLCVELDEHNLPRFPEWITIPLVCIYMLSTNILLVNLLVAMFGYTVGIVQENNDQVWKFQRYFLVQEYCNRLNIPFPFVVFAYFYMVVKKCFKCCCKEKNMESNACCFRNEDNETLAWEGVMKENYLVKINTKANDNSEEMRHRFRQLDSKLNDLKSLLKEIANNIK
T2 sequence (Q7Z2W7 whole entry): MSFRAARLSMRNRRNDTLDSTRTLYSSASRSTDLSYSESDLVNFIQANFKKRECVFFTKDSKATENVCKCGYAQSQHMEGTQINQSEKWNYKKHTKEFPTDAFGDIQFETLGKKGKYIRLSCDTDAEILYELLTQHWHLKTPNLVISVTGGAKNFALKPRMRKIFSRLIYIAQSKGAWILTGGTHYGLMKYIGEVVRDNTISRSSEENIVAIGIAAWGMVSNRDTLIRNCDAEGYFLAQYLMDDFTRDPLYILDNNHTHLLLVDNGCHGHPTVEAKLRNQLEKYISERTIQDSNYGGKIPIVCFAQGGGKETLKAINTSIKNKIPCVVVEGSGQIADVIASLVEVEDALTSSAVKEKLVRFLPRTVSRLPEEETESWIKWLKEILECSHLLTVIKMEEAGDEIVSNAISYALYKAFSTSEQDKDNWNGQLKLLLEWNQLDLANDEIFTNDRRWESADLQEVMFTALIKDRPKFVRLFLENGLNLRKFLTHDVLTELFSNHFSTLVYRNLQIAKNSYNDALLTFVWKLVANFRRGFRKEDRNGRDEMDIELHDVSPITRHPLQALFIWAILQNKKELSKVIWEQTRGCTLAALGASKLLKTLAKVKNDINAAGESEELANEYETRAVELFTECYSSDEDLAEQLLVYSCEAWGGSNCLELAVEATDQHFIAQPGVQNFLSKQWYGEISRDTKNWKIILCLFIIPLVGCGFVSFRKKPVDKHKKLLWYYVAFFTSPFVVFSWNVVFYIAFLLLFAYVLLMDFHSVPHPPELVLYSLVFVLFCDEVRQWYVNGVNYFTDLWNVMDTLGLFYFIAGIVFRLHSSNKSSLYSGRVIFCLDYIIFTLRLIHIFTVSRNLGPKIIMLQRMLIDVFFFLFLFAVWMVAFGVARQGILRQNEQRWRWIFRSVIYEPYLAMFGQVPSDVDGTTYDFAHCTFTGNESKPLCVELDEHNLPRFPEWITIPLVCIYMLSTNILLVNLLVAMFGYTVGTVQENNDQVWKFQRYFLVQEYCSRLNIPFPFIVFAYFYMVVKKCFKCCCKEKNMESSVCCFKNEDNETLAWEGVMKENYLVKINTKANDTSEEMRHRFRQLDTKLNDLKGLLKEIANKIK
Sequence of TRP-A1 (O75762 whole entry, species assumed): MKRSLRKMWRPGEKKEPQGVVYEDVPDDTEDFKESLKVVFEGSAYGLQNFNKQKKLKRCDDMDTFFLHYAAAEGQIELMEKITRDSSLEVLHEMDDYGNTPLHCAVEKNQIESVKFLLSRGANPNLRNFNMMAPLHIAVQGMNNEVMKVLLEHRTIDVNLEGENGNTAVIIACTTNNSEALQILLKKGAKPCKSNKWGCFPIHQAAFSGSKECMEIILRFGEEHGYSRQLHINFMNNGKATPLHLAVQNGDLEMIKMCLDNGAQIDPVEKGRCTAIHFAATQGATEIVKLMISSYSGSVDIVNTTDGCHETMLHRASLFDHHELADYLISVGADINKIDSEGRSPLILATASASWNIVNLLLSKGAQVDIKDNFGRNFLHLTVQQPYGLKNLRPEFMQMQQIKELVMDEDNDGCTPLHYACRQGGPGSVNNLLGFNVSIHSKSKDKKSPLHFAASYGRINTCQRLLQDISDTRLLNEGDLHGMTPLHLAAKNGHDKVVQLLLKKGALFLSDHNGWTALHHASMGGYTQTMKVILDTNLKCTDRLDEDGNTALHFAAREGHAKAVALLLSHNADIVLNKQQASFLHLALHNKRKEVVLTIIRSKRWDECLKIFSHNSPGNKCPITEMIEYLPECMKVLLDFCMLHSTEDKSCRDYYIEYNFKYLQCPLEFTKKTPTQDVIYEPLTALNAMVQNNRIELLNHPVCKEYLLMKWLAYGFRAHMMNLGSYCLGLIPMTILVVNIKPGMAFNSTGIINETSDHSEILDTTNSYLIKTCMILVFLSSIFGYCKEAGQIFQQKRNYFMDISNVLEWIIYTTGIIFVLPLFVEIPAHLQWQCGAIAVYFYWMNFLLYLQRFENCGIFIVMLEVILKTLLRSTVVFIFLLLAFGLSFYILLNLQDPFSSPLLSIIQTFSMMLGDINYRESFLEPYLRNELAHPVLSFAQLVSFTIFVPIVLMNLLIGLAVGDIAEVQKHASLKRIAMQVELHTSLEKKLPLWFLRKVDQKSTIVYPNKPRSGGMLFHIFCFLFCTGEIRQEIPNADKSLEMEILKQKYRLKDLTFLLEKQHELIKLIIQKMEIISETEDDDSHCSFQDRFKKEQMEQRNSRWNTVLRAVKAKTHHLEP
Sequence of TRP-M8 coolness receptor (Q7Z2W7 whole entry): as the sequence (Q7Z2W7 whole entry) above

Row | SMILES | cooling effect on the lips and on breathing sensation [1] | pKa [2] | also measured
1 | CC1CCC(C(C)C)C(C(=O)Nc2ccc(S(=O)(=O)Nc3ncccn3)cc2)C1 (stereo not shown) [CPS-125, 2-Isopropyl-5-methyl-cyclohexanecarboxylic acid [4-(pyrimidin-2-ylsulfamoyl)-phenyl]-amide] | gentle, cooling refreshing effect | – | activity relative to icilin (integrated inward current, icilin as 100) (mouse TRP-M8 receptor): 41%; EC50 (mouse TRP-M8 receptor; patch-clamp dose-response, read-out: EC50 for full activation of the receptor): 2 µM; ΔFmax (maximum fluorescence increase at the maximum concentration tested) (human TRP-M8 receptor; Fura-2 fluorescence units): 14,000 units; activation of TRP-A1 (TRP-A1): not; activation of TRP-M8 coolness receptor (TRP-M8 coolness receptor): activated; duration of cooling effect ([1]; 1 mg per nostril, 0.06 ml in 2 droplets per nostril): up to 3 hr
2 | CC1CCC(C(C)C)C(C(=O)Nc2ccc(S(N)(=O)=O)cc2)C1 (stereo not shown) [CPS-126] | inactive | – | activity relative to icilin (integrated inward current, icilin as 100) (mouse TRP-M8 receptor): 2%
3 | Nc1ccc(S(=O)(=O)NC(=O)CCl)cc1 [N1-chloroacetylsulfanilamide] | – | 3.79 | –
4 | Nc1ccc(C(=O)NS(=O)(=O)c2ccc(N)cc2)cc1 [N1-p-aminobenzoylsulfanilamide] | – | 5.20 | –
5 | Nc1ccc(S(=O)(=O)Nc2nncs2)cc1 [S-1,3,4-thiadiazole] | – | 4.77 | –
6 | COc1cc(NS(=O)(=O)c2ccc(NC(=O)C3CC(C)CCC3C(C)C)cc2)nc(OC)n1 (stereo not shown) [sulfadimethoxine analog] | slightly active | – | EC50 (human TRP-M8 receptor; Fura-2, 29 or 37° C., 96-well plate reader, read-out: EC50 (median effective concentration, calcium influx)): 60 µM
7 | COc1cnc(NS(=O)(=O)c2ccc(NC(=O)C3CC(C)CCC3C(C)C)cc2)nc1 (stereo not shown) [sulfameter analog] | moderate activities | – | –
8 | COc1ccc(NS(=O)(=O)c2ccc(NC(=O)C3CC(C)CCC3C(C)C)cc2)nn1 (stereo not shown) [sulfamethoxypyridazine analog] | moderate activities | – | –
9 | Nc1ccc(S(=O)(=O)Nc2ccccn2)cc1 [sulfapyridine] | – | 8.43 | –
10 | Nc1ccc(S(=O)(=O)Nc2nccs2)cc1 [sulfathiazole] | – | 7.12 | –
11 | Cc1noc(NS(=O)(=O)c2ccc(NC(=O)C3CC(C)CCC3C(C)C)cc2)c1C (stereo not shown) [sulfisoxazole analog] | slightly active | – | –
